Counter-ions that a name gives are not always drawn.

Data on 9 molecules can be found in US5556990A, “Polyarylcarbamoylaza- and -carbamoylalkanedioic acids” (Rhone-Poulenc Rorer Pharmaceuticals Inc., priority 1994, dated 1996).

This experiment addresses T1, squalene synthase (Rattus norvegicus, UniProt Q02769).
T1 construct: Microsomes are prepared by centrifugation (100,000 g) and then resuspended in the assay buffer; from tissue; host or cells: liver microsomes of male Sprague-Dawley rats (animals from Taconic Farms)
T1 sequence (Q02769 1-416): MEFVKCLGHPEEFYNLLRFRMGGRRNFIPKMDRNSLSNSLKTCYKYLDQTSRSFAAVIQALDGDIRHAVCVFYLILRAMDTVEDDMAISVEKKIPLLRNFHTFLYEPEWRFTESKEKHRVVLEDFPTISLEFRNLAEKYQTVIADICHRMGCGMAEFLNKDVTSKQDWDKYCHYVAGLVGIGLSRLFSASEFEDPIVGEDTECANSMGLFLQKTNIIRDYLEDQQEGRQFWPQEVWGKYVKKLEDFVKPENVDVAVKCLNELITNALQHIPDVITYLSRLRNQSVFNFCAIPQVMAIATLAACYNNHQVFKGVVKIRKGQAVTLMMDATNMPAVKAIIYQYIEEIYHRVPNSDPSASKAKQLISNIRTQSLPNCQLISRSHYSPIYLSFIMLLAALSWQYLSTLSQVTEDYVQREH
In words: Squalene Synthase Inhibition Assay (rat liver microsomes, [3H]FPP substrate, HEPES buffer). The class given is biochemical, male Sprague-Dawley rats. How it is done: Squalene Synthase Inhibition Assay
The squalene synthase assay used is described by Amin et al. in "Bisphosphonates Used for the Treatment of Bone Disorders Inhibit Squalene Synthase and Cholesterol Biosynthesis," Journal of Lipid Research, 33, 1657-1663 (1992).
I. Preparation of Assay Substances:
Test solutions are prepared fresh in 100% DMSO or dH2 O. Subsequent dilutions are made in the same solvent. Compounds are tested initially at 1 μM (final concentrations).
Potassium Phosphate (50 mM,) pH 7.4, and HEPES (4-(2-hydroxyethyl)-1-piperazineethanesulfonic acid, 50 mM) pH 7.4 stock buffers are prepared and stored at 4° C. until use.
C) Microsomal Enzyme Preparation:
Fresh livers from male Sprague-Dawley rats (Taconic Farms, Germantown, N.Y.) weighing 150-200 g are collected after exsanguination. All subsequent procedures are performed at 4° C. The liver is homogenized in the assay buffer (50 mM, pH 7.4). Cellular fractions are separated as described by Popjak, G. in "Enzymes of sterol biosynthesis in liver and intermediates of sterol biosynthesis," Meth. Enzymol. 15 393-454 (1969). Microsomes are prepared by centrifugation (100,000 g) and then resuspended in the assay buffer. Microsomes are rehomogenized with a motor-driven Teflon pestle to yield a uniform suspension (~30 mg protein/ml), aliquoted, and stored at -80° C. until use.
II. Squalene Synthase Assay
The procedure is a modification of those described by Popjack (vida supra) and Poulter et al. in "Squalene synthase. Inhibition by ammonium analogues of carbocationic intermediates in the conversion of presqualene diphosphate to squalene" J. Am. Chem. Soc. 111, 3734-3739 (1989). The assay is performed in 1 ml of 50 mM assay buffer, pH 7.4, containing 10 mM MgCl2, 0.5 mM NADPH, microsomes (30 μg protein), a test compound dissolved in distilled water or dimethylsulfoxide, and substrate [^3 H]FPP (0.5 μM, 0.27 Ci/mmol) in a 16×125 mm glass screw-cap tube. All components except [3H]FPP are preincubated for 10 min. at 37° C. The reaction is initiated by the addition of [^3 H]FPP. After 10 min at 37° C., the reaction is terminated by the addition of 1 ml 15% KOH in ethanol. The tubes are incubated at 65° C. for 30 min. to solubilize proteins. The mixture is extracted with 5 ml petroleum ether for 10 min. After freezing the lower aqueous phase, the organic phase is transferred to glass tubes containing 2 ml distilled water. After washing the lower aqueous phase is frozen and the petroleum ether phase is removed and counted with 10 ml Ready Safe liquid scintillation cocktail using a Beckman LS-9000 scintillation counter. DPM values are adjusted against a blank (no enzyme).
The difference in radioactivity in the presence and absence of the test compound is used to determine the level of inhibition. The IC50 values are calculated using a linear regression program of Tallarida and Murray (1987). Tallarida, R. J. and Murray, R. B. Manual of pharmacologic calculations with computer programs. Springer-Verlag, 1987.
A general note: Liver microsomes are a subcellular fraction often used to study metabolism.

What is called IC50 is the concentration that gives 50% inhibition. Low readings indicate inhibition by little substance, high ones a need for much substance. In turn, `CC(O)(CNC(=O)C(O)(CC(=O)O)CC(=O)O)c1ccc(-c2ccc3ccccc3c2)cc1` (stereo not drawn) [Example 28, 3-Hydroxy-3-{-N-[2-hydroxy-2-(4-naphthalen-2-yl-phenyl)prop-2-yl]carbamoyl}pentandioic acid, disodium salt] had an IC50 of 100 nM.
With `O=C(O)CC(O)(CC(=O)N[C@@H]1CCCC[C@H]1OCc1ccc(-c2nc3ccccc3o2)cc1)C(=O)O` (relative stereo) [Example 5, 4-[2-α-(4-Benzoxazol-2-ylbenzyloxy)cyclohexyl-β-carbamoyl]-3-hydroxy-3-carboxybutyric acid] the figure was 190 nM; with `O=C(O)CC(NC(=O)NC1CCCCC1OCc1ccc(-c2nc3ccccc3o2)cc1)C(=O)O` [Example 30, 3-(R)-(N-{2-α-[4-(Benzoxazol-2-yl)benzyloxy]cyclohexyl}-β-carbamoylaza)-3-carboxypropanoic acid], 2600 nM; with “4-{3-[4-(2-methoxyquinolin-6-yl)phenyl]-1,2,5,6-tetrahydro-pyridylcarbonyl}-3-hydroxy-3-carboxybutanoic acid, disodium salt [Example 12]”, 36 nM.
In the case of `COc1cccc(-c2ccc(C3(O)CCCN(C(=O)CC(O)(CC(=O)O)C(=O)O)C3)cc2)c1` (stereo not drawn) [Example 24, disodium salt], half-maximal inhibition (IC50) required 100 nM.
In the case of `O=C(O)CC(O)(CC(=O)N1CCCC(O)(c2ccc(-c3ccc4ccccc4c3)cc2)C1)C(=O)O` (stereo not drawn) [Example 1, 4-[3-Hydroxy-3-(4-naphth2-ylphenyl)piperidin-1-ylcarbonyl]-3-hydroxy-3-carboxybutanoic acid] it was 27 nM.
In the case of `O=C(O)CC(O)(CC(=O)N1CCCC(COCc2ccc(-c3nc4ccccc4o3)cc2)C1)C(=O)O` (stereo not drawn) [Example 19, 4-[3-(4-(Benzoxazol-2-yl)benzyloxymethyl)piperidin-1-ylcarbonyl]-3-hydroxy-3-carboxybutanoic acid, disodium salt] it was 51 nM; in that of `CCOC(=O)CC(O)(CC(=O)N[C@@H]1CCCC[C@H]1OCc1ccc(-c2nc3ccccc3o2)cc1)C(=O)OCC` (relative stereo), 10000 nM; in that of `CC[C@@H](COCc1ccc(-c2nc3ccccc3o2)cc1)NC(=O)CC(O)(CC(=O)O)C(=O)O` (stereo partly drawn) [Example 22, 3-{N-[1-(4-Benzoxazol-2-ylbenzyloxy)but-2-yl]carbamoyl}-3-hydroxy-3-carboxybutanoic acid, disodium salt], 77 nM.
